ChEMBL document CHEMBL3585345 (ACS Med Chem Lett, 2015)
The source made the active and inactive calls. The rule behind the calls is not given here.

Tests used:
[1] = target: T1, Aurora kinase A (Mus musculus, UniProt P97477); assay: Inhibition of recombinant mouse aurora kinase A expressed in insect Sf9 cells using biotin-GLRRASLG as substrate in presence of [gamma-33P]ATP
T1 sequence (P97477 whole entry): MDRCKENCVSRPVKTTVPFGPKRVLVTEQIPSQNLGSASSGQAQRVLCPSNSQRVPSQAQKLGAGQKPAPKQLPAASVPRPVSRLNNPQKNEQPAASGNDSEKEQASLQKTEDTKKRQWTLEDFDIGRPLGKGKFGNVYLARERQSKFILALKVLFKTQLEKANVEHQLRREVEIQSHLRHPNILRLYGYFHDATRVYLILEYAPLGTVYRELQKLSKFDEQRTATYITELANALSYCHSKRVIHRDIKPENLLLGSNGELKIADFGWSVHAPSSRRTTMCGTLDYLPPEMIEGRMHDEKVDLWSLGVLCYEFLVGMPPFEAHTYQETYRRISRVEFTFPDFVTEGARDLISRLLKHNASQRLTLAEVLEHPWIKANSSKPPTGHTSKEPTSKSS

[2] = tested on: HCT-116; assay: Cytotoxicity against human HCT116 cells assessed as inhibition of cell proliferation by BrdU incorporation assay; format: functional
[3] = target: Aurora kinase B (Homo sapiens, UniProt Q96GD4); assay: Inhibition of aurora kinase B in human HCT116 cells assessed as inhibition of histone H3 phosphorylation by immunofluorescence analysis; format: cell-based, HCT-116
Sequence of Aurora kinase B (Q96GD4 whole entry): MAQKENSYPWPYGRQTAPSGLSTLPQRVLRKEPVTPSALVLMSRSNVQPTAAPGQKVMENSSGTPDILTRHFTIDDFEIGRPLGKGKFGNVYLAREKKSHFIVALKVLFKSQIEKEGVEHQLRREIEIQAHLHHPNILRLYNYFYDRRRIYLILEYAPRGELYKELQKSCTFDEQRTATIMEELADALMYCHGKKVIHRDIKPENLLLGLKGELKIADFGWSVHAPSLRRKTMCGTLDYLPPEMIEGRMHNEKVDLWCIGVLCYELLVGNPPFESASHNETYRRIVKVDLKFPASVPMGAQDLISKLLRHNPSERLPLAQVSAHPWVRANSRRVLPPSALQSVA

[4] = Cmax in nude mouse brain at 30 mg/kg, po; format: ADME, organism-based; set-up: dose 30 mg/kg, route oral
[5] = AUC (0 to 8 hrs) in nude mouse brain at 30 mg/kg, po; format: ADME, organism-based; set-up: dose 30 mg/kg, time < 8 hr, route oral
[6] = in vivo; conditions: nude, mouse, brain/plasma, po, 30 mg/kg
[7] = tested on: Plasma; assay: AUC (0 to 8 hrs) in nude mouse plasma at 30 mg/kg, po; format: ADME, organism-based; set-up: dose 30 mg/kg, time < 8 hr, route oral; conditions: in vivo
[8] = Aqueous solubility of the compound; format: physicochemical; conditions: buffer
[9] = tested on: Caco-2; assay: Permeability across basolateral to apical side in human Caco2 cells; format: ADME, cell-based
[10] = tested on: Caco-2; assay: Permeability across apical to basolateral side in human Caco2 cells; format: ADME, cell-based
[11] = tested on: Rattus norvegicus; assay: In vivo binding affinity to GABAA receptor in po dosed Sprague-Dawley rat; format: ADME, organism-based
[12] = target: T2, Gamma-aminobutyric acid receptor subunit alpha-1 (Homo sapiens, UniProt P14867); assay: Binding affinity to GABAA alpha-1 benzodiazepine binding site (unknown origin)
T2 sequence (P14867 whole entry): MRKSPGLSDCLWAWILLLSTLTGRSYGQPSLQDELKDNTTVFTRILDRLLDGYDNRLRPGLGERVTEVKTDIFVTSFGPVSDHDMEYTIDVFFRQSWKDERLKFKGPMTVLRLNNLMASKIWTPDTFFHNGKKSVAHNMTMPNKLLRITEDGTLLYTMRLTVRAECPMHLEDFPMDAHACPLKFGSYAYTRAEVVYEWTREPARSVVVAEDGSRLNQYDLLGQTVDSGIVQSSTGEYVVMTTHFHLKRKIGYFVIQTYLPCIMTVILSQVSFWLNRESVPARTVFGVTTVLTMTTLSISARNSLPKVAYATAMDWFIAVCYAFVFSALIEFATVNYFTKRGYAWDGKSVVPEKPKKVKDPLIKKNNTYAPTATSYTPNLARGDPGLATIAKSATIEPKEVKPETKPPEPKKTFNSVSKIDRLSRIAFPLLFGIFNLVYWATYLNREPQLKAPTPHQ

[13] = tested on: Rattus norvegicus; assay: AUC (0 to 24 hrs) in po dosed Sprague-Dawley rat; format: ADME, organism-based; set-up: time < 24 hr, route oral; conditions: in vivo
[14] = tested on: Rattus norvegicus; assay: Toxicity in Sprague-Dawley rat assessed as GABAA related effect at maximum tolerated dose, po administered for 7 days; format: organism-based; conditions: in vivo, 168 h
[15] = Cmax in po dosed Sprague-Dawley rat; format: ADME, organism-based; set-up: route oral; conditions: in vivo
[16] = target: T3, Aurora kinase A (Homo sapiens, UniProt O14965); assay: Inhibition of aurora kinase A autophosphorylation at T288 in human HCT116 cells by immunofluorescence analysis; format: cell-based, HCT-116
T3 sequence (O14965 whole entry): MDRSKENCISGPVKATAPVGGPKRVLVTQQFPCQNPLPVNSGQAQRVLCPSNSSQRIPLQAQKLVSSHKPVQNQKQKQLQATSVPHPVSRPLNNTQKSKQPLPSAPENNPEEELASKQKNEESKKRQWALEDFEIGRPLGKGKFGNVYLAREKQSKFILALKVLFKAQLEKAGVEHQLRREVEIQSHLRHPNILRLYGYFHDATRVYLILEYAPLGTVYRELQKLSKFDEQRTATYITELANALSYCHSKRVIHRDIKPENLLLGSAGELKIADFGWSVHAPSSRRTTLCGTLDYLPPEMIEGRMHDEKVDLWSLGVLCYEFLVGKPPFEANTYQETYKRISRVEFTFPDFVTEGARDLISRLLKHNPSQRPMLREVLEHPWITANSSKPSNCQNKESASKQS

[17] = tested on: Calu-6; assay: Antitumor activity against human Calu6 cells xenografted in mouse assessed as tumor growth inhibition at 20 mg/kg, po bid administered for 21 days; format: functional, organism-based
[18] = tested on: Calu-6; assay: Antitumor activity against human Calu6 cells xenografted in mouse assessed as tumor growth inhibition at 30 mg/kg, po bid administered for 21 days; format: functional, organism-based
[19] = tested on: Rattus norvegicus; assay: (§1) Oral bioavailability in Sprague-Dawley rat at 10 mg/kg; format: ADME, organism-based; conditions: in vivo
[20] = tested on: Rattus norvegicus; assay: Toxicity in Sprague-Dawley rat assessed as myelosuppression at maximum tolerated dose, po administered for 7 days; format: organism-based; conditions: in vivo, 168 h
[21] = tested on: Rattus norvegicus; assay: Toxicity in Sprague-Dawley rat assessed as GABAA related effect administered as iv infusion measured within 5 mins; format: organism-based; conditions: in vivo
[22] = target: T1, Aurora kinase A; assay: Competitive inhibition of recombinant mouse aurora kinase A expressed in insect Sf9 cells in presence of ATP
[23] = Inhibition of human CYP450; format: ADME
[24] = Terminal half life in Sprague-Dawley rat at 1 mg/kg, iv; format: ADME, organism-based; conditions: in vivo, read-out: beta t1/2 (converted)
[25] = Protein binding in plasma (unknown origin); format: ADME, cell-free; conditions: read-out: PPB
[26] = Substrate activity at P-gp (unknown origin) transfected in MDCK cells; format: ADME, cell-based; conditions: human
[27] = tested on: Rattus norvegicus; assay: Toxicity in Sprague-Dawley rat assessed as mucositis at maximum tolerated dose, po administered for 7 days; format: organism-based; conditions: in vivo, 168 h
[28] = Volume of distribution at steady state in Sprague-Dawley rat at 1 mg/kg, iv; format: ADME, organism-based; conditions: in vivo, read-out: Vdss
[29] = as §1; format: ADME, organism-based; conditions: Sprague-Dawley, in vivo
[30] = Clearance in Sprague-Dawley rat at 1 mg/kg, iv; format: ADME, organism-based; conditions: in vivo
[31] = Inhibition of CYP450 (unknown origin) up to 100 uM; format: ADME; conditions: human
[32] = tested on: Rattus norvegicus; assay: Toxicity in Sprague-Dawley rat assessed as reversible effect on central nervous system at maximum tolerated dose, po administered for 7 days; format: organism-based; conditions: in vivo, 168 h

O=C(O)c1ccc(Nc2ncc3c(n2)-c2ccc(Cl)cc2C(c2ccccc2F)=NC3)cc1
IC50 [1]: 33 nM | GI50 [2]: 950 nM | IC50 [3]: > 10000 nM

O=C([O-])c1ccc(Nc2ncc3c(n2)-c2ccc(Cl)cc2C(c2c(F)cccc2F)=NC3)cc1.[Na+]
Cmax [4]: 2600 ng/mL | AUC(0-t) at 8 h [5]: 12500 ng·h/mL

COc1cccc(F)c1C1=NCc2cnc(Nc3ccc(C(=O)[O-])cc3)nc2-c2ccc(Cl)cc21.[Na+]
Kp [6]: 0.06 | Cmax [4]: 930 ng/mL | AUC [7]: 54300 ng·h/mL | AUC(0-t) at 8 h [5]: 3500 ng·h/mL

COc1cc(Nc2ncc3c(n2)-c2ccc(Cl)cc2C(c2c(F)cccc2OC)=NC3)ccc1C(=O)[O-].[Na+]
Kp [6]: 0.03 | Cmax [4]: 420 ng/mL | AUC(0-t) at 8 h [5]: 2000 ng·h/mL

O=C([O-])c1ccc(Nc2ncc3c(n2)-c2ccc(Cl)cc2C(c2ccccc2F)=NC3)cc1.[Na+]
solubility [8]: > 10000 µg/mL | permeability [9]: 64 ×10⁻⁶ cm/s | permeability [10]: 58 ×10⁻⁶ cm/s

COc1cccc(F)c1C1=NCc2cnc(Nc3ccc(C(=O)O)cc3)nc2-c2ccc(Cl)cc21
IC50 [1]: 10 nM | Activity [11]: Non-toxic | IC50 [12]: 150 nM | AUC [13]: 244000 ng·h/mL | Activity [14]: Non-toxic | Cmax [15]: 46000 ng/mL | GI50 [2]: 130 nM | IC50 [3]: 2500 nM

Nc1ncc2c(n1)-c1ccc(Cl)cc1C(c1ccccc1F)=NC2
IC50 [1]: 1700 nM | IC50 [16]: 6000 nM | GI50 [2]: 11000 nM | IC50 [3]: > 10000 nM

COc1cc(Nc2ncc3c(n2)-c2ccc(Cl)cc2C(c2c(F)cccc2OC)=NC3)ccc1C(=O)O
TGI [17]: Active

O=C(O)c1ccc(Nc2ncc3c(n2)-c2ccc(Cl)cc2C(c2c(F)cccc2F)=NC3)cc1
TGI [18]: Active

COc1cc(Nc2ncc3c(n2)-c2ccc(Cl)cc2C(c2c(F)cccc2OC)=NC3)ccc1C(=O)O [ALISERTIB]
IC50 [1]: 1 nM | F [19]: 124% | Activity [20]: Toxic | Activity [11]: Non-toxic | Activity [21]: Toxic | Ki [22]: 0.3 nM | IC50 [12]: 490 nM | permeability [9]: 47 ×10⁻⁶ cm/s | AUC [13]: 201000 ng·h/mL | IC50 [23]: > 100000 nM | half-life [24]: 7 h | permeability [10]: 62 ×10⁻⁶ cm/s | fraction unbound [25]: < 0.03 | Activity [14]: Non-toxic | Activity [26]: Not Active | Cmax [15]: 48000 ng/mL | GI50 [2]: 30 nM | Activity [27]: Toxic | Vd [28]: 2.21 L/kg

O=C(O)c1ccc(Nc2ncc3c(n2)-c2ccc(Cl)cc2C(c2c(F)cccc2F)=NC3)cc1 [MLN-8054]
IC50 [1]: 31 nM | bioavailability [29]: 100% | Activity [20]: Toxic | Ki [22]: 7 nM | IC50 [12]: 330 nM | clearance [30]: 20.3 mL/min/kg | inhibition (INH) [31]: Not Active | permeability [9]: 79 ×10⁻⁶ cm/s | AUC [13]: 13800 ng·h/mL | half-life [24]: 4.2 h | permeability [10]: 54 ×10⁻⁶ cm/s | fraction unbound [25]: < 0.02 | Activity [26]: Not Active | Activity [32]: Toxic | Cmax [15]: 5200 ng/mL | Activity [27]: Toxic | Vd [28]: 1.48 L/kg
